Laboratory results taken from paper PMC6832219, “Synthesis of Novel Baicalein Amino Acid Derivatives and Biological Evaluation as Neuroprotective Agents” (Molecules, 2019).

What was measured:
H9C2 cells [1] = assay: Toxicity on normal H9C2 cells (MTT assay); type: cell-based
Procedure: To study cytotoxicity on normal cells, the cytotoxicity of compounds against normal H9C2 cells were tested.
The SH-SY5Y ([…]) and H9C2 ([…]) cell lines were obtained from the Chinese Academy of Medical Sciences and Peking Union Medical College. All of the cell lines were grown in dulbecco’s modified eagle medium (DMEM) with 10% (v/v) fetal bovine serum (FBS) and 1% (v/v) penicillin/streptomycin (Thermo Technologies, New York, NY, USA), under a humidified atmosphere containing 5% CO2 at 37 °C. The baicalein derivatives were dissolved in DMSO (Sigma, St. Louis, MO, USA) and added at various concentrations to the cell culture.
The protective effect of these compounds was evaluated on SH-SY5Y and H9C2 cell lines via the MTT method. The cells growing in the logarithmic phase were cultured in 96-well plates at a density 3 × 10^3 cells/well and incubated for 24 h. Then each well was treated with the required concentrations (50 µM concentrations, 25 µM concentrations, 12.5µM concentrations, 6.25 µM concentrations, and 3.125 µM concentrations) of baicalein derivatives, and incubated 36 h at 37 °C with 5% CO2. After that, the cells were induced by H2O2 (final concentration, […]) for 12 h. Control-differentiated cells were injected with new growth media at equal amounts. Before […] MTT solution (5 mg/mL) was added to each well, the cell culture fluid was discarded, and […] fresh cell culture fluid was added. The plate was incubated for a further 4 h at 37 °C. The cell supernatant medium was removed carefully, without disturbing the attached cells, and formazan crystals were solubilized by adding 150 μL DMSO into each well. The absorbance was measured at 490 nm with a plate reader (BIORAD 550 spectrophotometer, Bio-rad Life Science Development Ltd., Beijing, China). H2O2 was dissolved in DMEM medium. Wells without drugs were used as blanks. The EC50 values were defined as the concentrations that causes the maximum effect of 50%; IC50 values were defined as the concentration of compound which gives 50% growth inhibition, and were calculated using the GraphPad Prism 5. The proliferation rates of damaged SH-SY5Y cells were calculated in the following formula (1): [OD490 (compound) − OD490 (CoCl2)]/[OD490 (NGF) − OD490 (CoCl2)] × 100%(1) The EC50 values were using the equation −pEC50 = log Cmax − log 2 × (ΣP − 0.75 + 0.25Pmax + 0.25Pmin)(2) where Cmax is the maximum concentration, ΣP is the sum of proliferation rates, Pmax is the maximum value of the proliferation rate, and Pmin is the minimum value of the proliferation rate. Cell viability was expressed as a percentage of the control.
The inhibition rate was calculated in the following equation: % inhibition = 1 − (Sample group OD/Control group OD) × 100%(3)

injured SH-SY5Y cells = assay: Morphological detection of apoptosis using Giemsa staining; type: cell-based; settings: 6.25, 12.5, 25 μM, 72 h
Procedure: SH-SY5Y cells in the logarithmic growth phase were seeded in 12-well plates (1.2 × 10^4 cells/well). After incubation for 24 h at 37 °C with 5% CO2, various concentrations ([…] concentrations) of compound 8 were added to the cultures, and the plate was incubated for a further 72 h. Then, we discarded the cell culture fluid, washed twice with phosphate-buffered saline (PBS), and fixed the cells with cold methanol. The SH-SY5Y cells were stained with 6% Giemsa solution for 5 min, washed with water, and dried. The cell morphological changes were observed under an inverted microscope.
Figure 2 Morphological detection of apoptosis using Giemsa staining (200×) on injured SH-SY5Y cells treated with compound 8: (a) control group, (b) injury group, (c) 6.25 μM, (d) 12.5 μM, and (e) 25 μM.

[2] = test system: chick chorioallantoic membrane (CAM); assay: Angiogenesis assay on chick chorioallantoic membrane (CAM), gelatin sponge; type: in vivo; settings: 1 and 4 mg/mL on gelatin sponge
Procedure: Especially multi-effective neuroprotective agents present positive effects to neurosurgical patients. According to the references, baicalein can promote angiogenesis. Analogously, the angiogenesis activities of compound 8 were evaluated by a CAM assay (Figure 4 and Figure 5). The model was established according to our previous work. After implantation, the sponge is treated with a stimulator of blood vessel formation in the absence or presence of an angiogenesis inhibitor. […] The high survival rate of embryos and normal growth of medium and large vessels (inner diameter > 50 µm) indicates successful modeling and low toxicity of compound 8 […] (Figure 5). Suppression of small vessels (inner diameter < 50 µm) were recognized as angiogenesis activity. […]
Fertilized White Leghorn chicken eggs (50–65 g), provided by the Chinese Academy of Agricultural Sciences, were placed in an incubator as soon as embryogenesis started, and were kept under constant humidity of 65% at 37 °C. […] Quantitative evaluation of the angiogenic response, expressed as microvessel density, can be obtained by applying a morphometric method of “point counting” on histological CAM sections. Data was analyzed using a t-test of the statistics analysis system; the values were expressed as mean ± SD of six observations, and p < 0.05 was considered significant. […]

H9C2 cells [3] = assay: Toxicity on normal H9C2 cells (MTT assay); type: cell-based; settings: read-out: Survival Rate (%)

SMILES: O=C(NC(Cc1ccccc1)C(=O)Oc1c(O)cc2oc(-c3ccccc3)cc(=O)c2c1O)OCc1ccccc1 (stereo not shown) [Compound 8, 5,7-dihydroxy-4-oxo-2-phenyl-4H-chromen-6-yl 2-{[(benzyloxy)carbonyl]amino}-3-phenyl-proppanpate]
- viability at 6.25 µM (H9C2 cells [1]; 6.25 µM, H9C2 cells, MTT, read-out: Survival Rate (%)): 195%
- viability at 12.5 µM (H9C2 cells [1]; 12.5 µM, H9C2 cells, MTT, read-out: Survival Rate (%)): 182%
- viability at 25 µM (H9C2 cells [1]; 25 µM, H9C2 cells, MTT, read-out: Survival Rate (%)): 169%
- viability at 50 µM (H9C2 cells [1]; 50 µM, H9C2 cells, MTT, read-out: Survival Rate (%)): 168%
- Toxicity against H9C2 cells (in words) (H9C2 cells [1]; normal H9C2 cells): lower toxicity on the H9C2 cell line
- IC50 (H9C2 cells [1]; normal H9C2 cells, MTT): > 100 µM
- Nuclear and cytoplasmic morphological changes (Giemsa staining) (injured SH-SY5Y cells): alleviating morphological manifestations of cell damage
- Toxicity in CAM model (embryo survival, medium and large vessels) [2]: low toxicity
- Angiogenesis activity on CAM (small vessels) ([2]; 48 h): dramatically promote small angiogenesis in a dose-dependent manner
- viability at 100 µM (H9C2 cells [3]): 168%
